US20260184704A1, “NLRP3 INFLAMMASOME INHIBITORS AND USES THEREOF” (Insilico Medicine IP Limited, priority 2023, published 2026)

Columns and labels:
[1] = system: THP-1 cells, IL-1β release; assay: IL-1β Release THP-1 Assay (Example B-3); assay type: cell-based; details: Homo sapiens; PMA-differentiated THP-1 cells, LPS then Nigericin, IL-1β by Elisa; read-out: Potency, THP-1 IL-1β, IC50 (nM), Example B-3
Experimental: Example B-3: IL-1β Release THP-1 Assay
THP-1 cells Culture RPMI1640 medium, 10% FBS, 1% PS, 55 uM β-Mer at 37° C. & 5% CO2 incubator.
IL-1β Release Detection • 1) Seed THP-1 in complete RPMI 1640 medium containing PMA into 96 well plate coated with poly-L-lysin incubate for 24 hours. • 2) Remove medium, wash the differentiated THP-1 cells with PBS, add FBS free RPMI 1640 medium. • 3) Add LPS and incubate for 3 hours at 37° C. & 5% CO2 incubator. • 4) Add compounds and incubate for 30 minutes at 37° C. & 5% CO2 incubator. • 5) Add Nigericin and incubate for 1 hour at 37° C. & 5% CO2 incubator. • 6) Collect supernatant to test IL-1β by Elisa.
• a) Assay robustness check with DMSO and Low control data:
[formula] • X: cpd concentration • Y: change % • Top and Bottom: Plateaus in same units as Y • logIC50: same log units as X • HillSlope: Slope factor or Hill slope

[2] = target: T1, hERG (Homo sapiens, UniProt Q12809); assay: hERG Screening Assay Using Electrophysiological Manual Patch-Clamp (Example B-5); assay type: cell-based; details: hERG-CHO cells, whole-cell manual patch clamp, room temperature; read-out: hERG inhibition_IC50 (μM), Example B-5
T1 construct: expressed in transfected cells
T1 sequence (Q12809 whole entry): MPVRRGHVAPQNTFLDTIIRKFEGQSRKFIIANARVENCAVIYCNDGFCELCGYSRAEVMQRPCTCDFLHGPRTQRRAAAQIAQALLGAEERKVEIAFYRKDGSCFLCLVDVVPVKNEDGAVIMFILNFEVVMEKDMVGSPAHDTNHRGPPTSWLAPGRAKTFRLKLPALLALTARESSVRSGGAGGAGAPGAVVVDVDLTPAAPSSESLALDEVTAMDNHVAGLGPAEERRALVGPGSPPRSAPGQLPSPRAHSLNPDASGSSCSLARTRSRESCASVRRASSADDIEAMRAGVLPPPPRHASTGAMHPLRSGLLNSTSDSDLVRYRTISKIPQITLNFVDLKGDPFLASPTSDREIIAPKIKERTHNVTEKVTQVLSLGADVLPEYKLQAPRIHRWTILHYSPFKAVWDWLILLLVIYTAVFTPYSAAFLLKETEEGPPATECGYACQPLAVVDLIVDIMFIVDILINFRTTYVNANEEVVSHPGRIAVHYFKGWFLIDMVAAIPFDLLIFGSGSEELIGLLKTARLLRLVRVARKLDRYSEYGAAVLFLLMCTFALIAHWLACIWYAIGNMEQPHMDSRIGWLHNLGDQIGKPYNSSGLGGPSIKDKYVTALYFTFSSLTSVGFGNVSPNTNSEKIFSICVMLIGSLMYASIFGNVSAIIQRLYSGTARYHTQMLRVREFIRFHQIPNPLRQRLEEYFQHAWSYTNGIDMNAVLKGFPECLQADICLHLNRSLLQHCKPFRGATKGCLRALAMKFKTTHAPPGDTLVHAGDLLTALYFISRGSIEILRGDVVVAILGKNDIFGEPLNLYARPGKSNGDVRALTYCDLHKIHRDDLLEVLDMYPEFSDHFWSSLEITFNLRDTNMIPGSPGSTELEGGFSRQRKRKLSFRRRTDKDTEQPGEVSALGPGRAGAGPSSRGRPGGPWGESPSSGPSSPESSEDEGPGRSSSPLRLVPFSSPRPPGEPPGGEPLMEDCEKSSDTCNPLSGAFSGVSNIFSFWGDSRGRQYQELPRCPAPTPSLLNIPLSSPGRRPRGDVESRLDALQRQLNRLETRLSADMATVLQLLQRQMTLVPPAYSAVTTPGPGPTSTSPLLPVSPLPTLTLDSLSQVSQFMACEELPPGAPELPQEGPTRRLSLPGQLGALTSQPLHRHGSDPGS
Experimental: Example B-5: hERG Screening Assay Using Electrophysiological Manual Patch-Clamp
Cell lines: hERG-CHO cells
Method: CHO cells stably expressing the transcript of hERG were investigated by whole-cell manual patch clamp technique. hERG-CHO cells were cultured in 35 mm dishes to a maximum 70-80% confluence at 37° C. 5% CO2 incubator. The culture media (F12 medium (Invitrogen 11765062, ThermoFisher, USA) supplemented with 10% fetal bovine serum (Invitrogen 10099141, ThermoFisher, USA), 100 μg/mL G418 (Invitrogen 11811023, ThermoFisher, USA) and 100 μg/mL Hygromycin B (Invitrogen 10687010, ThermoFisher, USA)) was removed and the hERG-CHO cells were washed with extracellular solution (in mM): 140 NaCl, 5 KCl, 1 CaCl2), 1.25 MgCl2, 10 HEPES and 10 Glucose, pH 7.4 with NaOH. Then the cells were dissociated with 0.25% Trypsin-EDTA for 3-5 min, after that, the digestion solution was removed and the cells were resuspended in the extracellular solution with pipette by pipetting up and down several times. Resuspended cells were transferred to dishes for recording and cells were perfused with extracellular solution. Electrodes (a tip resistance of 3-5 MegOhm) were pulled from borosilicate grass pipette (Sutter instrument BF150-86-10) and filled with intracellular solution (in mM): 140 KCl, 1 MgCl2, 1 CaCl2), 10 EGTA and 10 HEPES, pH 7.2 with KOH. Data were obtained using a patch-clamp amplifier, signals were filtered at 2 kHz and sampled at frequencies of 10 kHz using pClamp 10 software. The cells were held at −100 mV and hERG potassium currents were activated by a 2 s depolarization potential of +20 mV followed by a repolarization potential of −50 mV for Is then back to the holding potential. Experiments were performed at room temperature.
Data analysis: Data were retrieved and analyzed using pClamp 10, GraphPad Prism 8 and Excel software. The peak amplitude of hERG currents were measured using clampfit and exported to Excel and GraphPad Prism 8 for subsequent analysis.
where Y is the inhibition % corresponding to X, [X] is the Log value of concentration of compound in the external solution and HillSlope is the Hill coefficient. The ratio of inhibition was calculated by using the equation: Inhibition=(1−I/Io)*100%, where Io and I are the current amplitude measured in control and in the presence of compounds, respectively. n is not less than 2 cells for each concentration.
Results: Compounds IC50 on hERG and concentration-response curves

[3] = target: T2, NLRP3 (Homo sapiens, UniProt Q96P20); assay: NLRP3 Enzymatic Activity ADP-Glo Assay (Example B-4); assay type: biochemical; details: hydrolysis of ATP by NLRP3; NLRP3 15 nM, ATP 1 μM; read-out: NLRP3_ADP-Glo_IC50 (nM), Example B-4
T2 construct: purchased ICE YM2306T-H06MHS
T2 sequence (Q96P20 whole entry): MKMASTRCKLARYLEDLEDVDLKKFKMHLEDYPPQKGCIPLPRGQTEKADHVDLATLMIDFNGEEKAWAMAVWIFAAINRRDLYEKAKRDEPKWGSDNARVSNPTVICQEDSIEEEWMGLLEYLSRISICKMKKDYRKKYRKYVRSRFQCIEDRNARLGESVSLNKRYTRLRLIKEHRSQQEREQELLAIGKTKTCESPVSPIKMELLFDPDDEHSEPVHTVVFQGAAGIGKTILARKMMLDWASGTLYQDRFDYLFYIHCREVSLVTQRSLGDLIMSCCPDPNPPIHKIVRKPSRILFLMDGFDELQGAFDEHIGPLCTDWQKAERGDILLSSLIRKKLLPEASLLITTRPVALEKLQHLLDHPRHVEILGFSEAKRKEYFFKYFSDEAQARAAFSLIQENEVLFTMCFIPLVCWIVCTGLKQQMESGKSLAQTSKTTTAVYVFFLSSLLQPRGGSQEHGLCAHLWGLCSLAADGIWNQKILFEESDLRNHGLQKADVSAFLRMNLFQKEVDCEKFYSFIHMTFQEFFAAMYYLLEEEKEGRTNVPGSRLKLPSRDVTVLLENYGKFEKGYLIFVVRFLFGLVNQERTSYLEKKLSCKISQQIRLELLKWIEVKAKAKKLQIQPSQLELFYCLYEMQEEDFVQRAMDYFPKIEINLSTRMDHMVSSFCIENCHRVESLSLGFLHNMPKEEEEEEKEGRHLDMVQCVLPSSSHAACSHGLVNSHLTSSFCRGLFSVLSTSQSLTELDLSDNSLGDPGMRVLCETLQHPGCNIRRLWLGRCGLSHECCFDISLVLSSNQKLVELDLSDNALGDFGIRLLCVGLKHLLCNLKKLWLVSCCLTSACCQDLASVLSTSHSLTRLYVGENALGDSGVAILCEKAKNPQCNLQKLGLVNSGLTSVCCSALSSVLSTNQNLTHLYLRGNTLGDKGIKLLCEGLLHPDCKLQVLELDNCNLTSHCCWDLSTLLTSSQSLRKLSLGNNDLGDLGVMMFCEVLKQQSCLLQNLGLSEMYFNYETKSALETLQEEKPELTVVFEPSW
Experimental: Example B-4: NLRP3 Enzymatic Activity ADP-Glo Assay
NLRP3 activity test experiment, measuring the hydrolysis of NLRP3 on the substrate ATP using the ADP-Glo assay. First, after adding an inhibitor containing 0.5% DMSO with Echo, add 5 μL of NLRP3 (ICE, YM2306T-H06MHS) enzyme solution to each well, centrifuge at 1000 rpm for 1 min at room temperature and react for 10 min. Then add 5 μL of ATP (Promega, V915A) substrate solution to each well for 90 min at room temperature; NLRP3 and ATP were prepared in 50 mM HEPES, 10 mM MgCl2, 0.01% Brij-35, 1 mM EGTA, and 2 mM DTT buffers at final concentrations of 15 nM and 1 μM, respectively. Subsequently, 10 μL ADP-Glo reagent solution (Promega, V9102) was added into each assay well, centrifuged at 1000 rpm for 1 min, and then incubated at room temperature for 45 min. Finally, 20 μL ADP-Glo detection solution (Promega, V9102) is added to each well, centrifuged at 1000 rpm for 1 min and reacted for 45 min at room temperature. The luminescence signal values were read using a BMG instrument and the IC50 values were determined by fitting the data to an S-shaped dose-response curve using nonlinear regression.

| Compound | IC50 [1] | IC50 [3] | IC50 [2] |
| --- | --- | --- | --- |
| Cc1cc2c(c(O)c1C1=NN=C(N[C@@H]3CCCN(C)C3)SC1)CCO2 [Compound 28] | < 10 nM | 10 to 100 nM | 29.4 µM |
| Cc1cc2c(c(O)c1C1=NN=C(N[C@H]3C[C@@](C)(O)C3)SC1)CC2 [Compound 59] | < 10 nM | < 10 nM | > 30 µM |
| Cc1cc2c(c(O)c1C1=NN=C(N[C@H]3C[C@@](C)(O)C3)SC1)CCO2 [Compound 31] | 10 to 100 nM | 10 to 100 nM | > 30 µM |
| Cc1cc2c(c(O)c1C1=NN=C(N[C@H]3C[C@@](C)(O)C3)CS1)CCO2 [Compound 203] | 10 to 100 nM | 10 to 100 nM | – |
| Cc1cc(C(F)(F)F)cc(O)c1C1=NN=C(N2CCC3CCN(C)CC32)SC1 (stereo not shown) [Compound 35] | 10 to 100 nM | 10 to 100 nM | – |

Now from value to molecule, other results behind:

| IC50 [1] | IC50 [3] | Compound | IC50 [2] |
| --- | --- | --- | --- |
| 10 to 100 nM | 10 to 100 nM | Cc1cc(C(F)(F)F)cc(O)c1C1=NN=C(N[C@@H]2C[C@@H](F)CN(C)C2)SC1 [Compound 8] | 19.1 µM |
| 10 to 100 nM | 10 to 100 nM | Cc1cc(C(F)(F)F)cc(O)c1C1=NN=C(N[C@H]2C[C@@](C)(O)C2)SC1 [Compound 10] | > 30 µM |
